# Test results published in publication PMC5075699.
# Values joined by “and” are separate entries in the source; they are usually repeats but may differ in a detail not shown here. Equal entries are not always repeated.
# What was measured:
# hAPP-J20 (J20) mice = assay: Morris water maze #2, hAPP-J20 mice; details: for %Target Quadrant / Crossing Frequency / Latency to Target / Training Latency: ISRIB 2.5mpk in DMSO/PEG
# [1] = parameters: method as in Di Prisco et al., 2014; details: acute treatment; ref Di Prisco et al., 2014; cited from earlier work
# rodents = test system: rodents; parameters: method as in Sidrauski et al., 2013; details: delivered immediately after a stimulus or behavioral task; ref Sidrauski et al., 2013; cited from earlier work
# [2] = ISRIB plasma levels in satellite mice (pharmacokinetic data); details: 2.5 hours post-administration, individual mouse
# nontransgenic (NTG) mice = assay: Morris water maze #2, nontransgenic (NTG) mice; details: for %Target Quadrant / Crossing Frequency / Latency to Target / Training Latency: ISRIB 2.5mpk in DMSO/PEG
# nontransgenic mice = assay: Pilot Morris water maze #1 (spatial learning and memory); details: vs vehicle; for MWM training latency Trial*ISRIB (linear mixed effects regression model): 6-7 month-old nontransgenic mice
# [3] = Fig 4E, NTG mice, individual mice
# [4] = Fig 4F, NTG mice, individual animals
# [5] = 0.1 mpk i.p. after each training trial
# [6] = 0.25 mpk i.p. after each training trial
compound,measurement,setting,value
O=C(COc1ccc(Cl)cc1)NC1CCC(NC(=O)COc2ccc(Cl)cc2)CC1 (stereo not shown) [ISRIB],learning during the training trials,hAPP-J20 (J20) mice; 0.25 or 2.5 mpk,did not observe an improvement in learning
same,spatial memory treatment effects,"hAPP-J20 (J20) mice; 72 hour probe trial, 0.25 or 2.5 mpk",did not observe significantly positive treatment effects
same,%Target Quadrant,"hAPP-J20 (J20) mice; Fig 4E, individual mice",31.3647% and 28.3617% and 19.6864% and 31.5871% and 22.6894% and 33.1443% and 19.1302% and 8.787% and 27.8056% and 30.5861% and 20.9098% and 21.7996%
same,Crossing Frequency,"hAPP-J20 (J20) mice; Fig 4E, individual mice",3 and 2 and 0 and 1
same,Latency to Target,"hAPP-J20 (J20) mice; Fig 4E, individual mice",3.136 and 38.1715 and 60 and 8.542 and 51.318 and 28.5619 and 11.0777
same,Crossing Frequency,"hAPP-J20 (J20) mice; Fig 4F, individual animals",3 and 1 and 0 and 4
same,Latency to Target,"hAPP-J20 (J20) mice; Fig 4F, individual animals",7.941 and 17.6843 and 60 and 4.8048 and 4.538 and 12.7461 and 25.1585 and 9.076
same,%Target Quadrant,"hAPP-J20 (J20) mice; Fig 4F, individual mice",32.9218% and 31.4759% and 23.2455% and 26.026% and 17.9068% and 37.2595% and 13.013% and 23.1343% and 9.676% and 36.9258% and 20.7986% and 27.6944%
same,Training Latency,"hAPP-J20 (J20) mice; Trial 8, individual mice (Fig 4A-D)",120.187 (5×) and 47.5142 and 79.2125 and 54.9216 and 27.9613 and 39.306 and 87.0204 and 3.937
same,Training Latency,"hAPP-J20 (J20) mice; Trial 9, individual mice (Fig 4A-D)",119.052 and 25.2252 and 42.5759 and 34.301 and 6.673 and 11.3447 and 10.8775 and 120.187 (2×) and 96.2296 and 50.5839 and 5.272
same,Training Latency,"hAPP-J20 (J20) mice; Trial 10, individual mice (Fig 4A-D)",11.3447 and 82.5492 and 23.8906 and 120.187 (3×) and 29.1625 and 43.9106 and 12.3457 and 39.2392 and 38.9056 and 8.008
same,Training Latency,"hAPP-J20 (J20) mice; Trial 11, individual mice (Fig 4A-D)",26.293 and 117.251 and 19.4861 and 120.187 (5×) and 28.2282 and 11.4781 and 13.4134 and 31.1645
same,effect on object-place learning,[1],interfered with proper object-place learning
same,effect on spatial and fear memory,rodents,enhance spatial and fear memory
same,Plasma concentration,"[2]; Morris water maze #1 satellite mice, 0.25 mpk i.p. (1% DMSO/saline), 0.25 mg/kg",65.3 ng/mL and 71.9 ng/mL
same,Plasma concentration,"[2]; Morris water maze #2 satellite mice, 0.25 mpk i.p. (1% DMSO/saline), 0.25 mg/kg",66.6 ng/mL and 65.6 ng/mL
same,Plasma concentration,"[2]; Morris water maze #2 satellite mice, 2.5 mpk i.p. (DMSO/PEG), 2.5 mg/kg",657 ng/mL and 348 ng/mL and 286 ng/mL
same,MWM training latency NTG Trial*ISRIB (linear mixed effects regression model),"nontransgenic (NTG) mice; 0.25 mpk in 1% DMSO/saline, vs vehicle",−0.1 sec/day
same,%Target Quadrant,nontransgenic (NTG) mice; [3],53.4979% and 33.8116% and 21.5771% and 31.9208% and 40.8186% and 33.2555% and 14.7926% and 38.7054% and 50.3837% and 29.8076% and 34.8126% and 37.4819%
same,Crossing Frequency,nontransgenic (NTG) mice; [3],7 and 3 and 0 and 4 and 2 and 1 and 6
same,Latency to Target,nontransgenic (NTG) mice; [3],12.9463 and 11.6116 and 60 and 7.741 and 3.4034 and 4.6046 and 17.8846 and 5.806 and 58.7921 and 9.409 and 18.6186
same,%Target Quadrant,"nontransgenic (NTG) mice; Fig 4F, NTG mice, individual mice",51.4959% and 27.4719% and 32.1433% and 20.02% and 23.9128% and 54.4989% and 37.8156% and 28.8066% and 47.6032% and 24.024% and 39.8176%
same,Crossing Frequency,nontransgenic (NTG) mice; [4],7 and 3 and 5 and 2 and 1
same,Latency to Target,nontransgenic (NTG) mice; [4],10.7441 and 4.6046 and 20.3537 and 7.474 and 3.27 and 20.1535 and 5.6056 and 21.1545 and 23.6904 and 21.4214 and 20.287 and 19.2859
same,Training Latency,"nontransgenic (NTG) mice; NTG mice, Trial 8, individual mice (Fig 4A-D)",2.936 and 11.4781 and 15.9493 and 10.5439 and 6.139 and 7.074 and 4.8048 and 33.3667 and 6.74 and 48.7821 and 3.871 and 75.7424
same,Training Latency,"nontransgenic (NTG) mice; NTG mice, Trial 9, individual mice (Fig 4A-D)",45.6457 and 6.273 and 8.742 and 30.297 and 12.6793 and 5.739 and 57.0571 and 4.8048 and 11.8118 and 7.341 and 70.1368 and 5.138
same,Training Latency,"nontransgenic (NTG) mice; NTG mice, Trial 10, individual mice (Fig 4A-D)",3.737 and 4.004 and 28.295 and 62.9963 and 3.67 and 21.6216 and 5.939 and 22.6226 and 8.542 and 19.4861 and 60 and 4.271
same,Training Latency,"nontransgenic (NTG) mice; NTG mice, Trial 11, individual mice (Fig 4A-D)",31.7651 and 42.1088 and 14.281 and 24.7581 and 7.074 and 6.54 and 24.024 and 52.7861 and 11.6116 and 20.7541 and 39.5062 and 3.6036
same,learning during the training trials,"nontransgenic (NTG) mice; NTG mice, 0.25 or 2.5 mpk",did not observe an improvement in learning
same,spatial memory treatment effects,"nontransgenic (NTG) mice; NTG mice, 72 hour probe trial, 0.25 or 2.5 mpk",did not observe significantly positive treatment effects
same,MWM training distance Trial*ISRIB (linear mixed effects regression model),nontransgenic mice; [5],-35 cm/day
same,MWM training latency Trial*ISRIB (linear mixed effects regression model),nontransgenic mice; [5],−1.2 sec/day
same,MWM training distance Trial*ISRIB (linear mixed effects regression model),nontransgenic mice; [6],-36 cm/day
same,MWM training latency Trial*ISRIB (linear mixed effects regression model),nontransgenic mice; [6],−0.9 sec/day
